Assay results: PubChem BioAssay AID248 (DTP/NCI, 2004)
Several values for one entry are separate records, joined by “and”; a condition that tells them apart may be missing. Equal entries are not always repeated. Toxic doses and inconclusive results are not listed.

System: L1210 leukemia ip in BDF1 mice, survival T/C
Assay: NCI In Vivo Anticancer Drug Screen. Data for tumor model L1210 Leukemia (intraperitoneal) in B6D2F1 (BDF1) mice
Conditions: endpoint: mean survival time, higher = longer survival
Procedure, shortened: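 Each compound was tested against a transplantable tumor grown in mice. The endpoint was survival, with treated animals benchmarked against vehicle controls as a simple ratio.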

[1] = dose: 100.0 mg/kg/injection, schedule: Q04DX002 (ip), vehicle: saline with Tween-80
[2] = dose: 200.0 mg/kg/injection, schedule: Q04DX002 (ip), vehicle: saline with Tween-80
[3] = dose: 400.0 mg/kg/injection, schedule: Q04DX002 (ip), vehicle: saline with Tween-80
[4] = dose: 100.0 mg/kg/injection, schedule: Q04DX003 (ip), vehicle: Klucel (hydroxypropylcellulose) (HPC)
[5] = dose: 200.0 mg/kg/injection, schedule: Q04DX003 (ip), vehicle: Klucel (hydroxypropylcellulose) (HPC)
[6] = dose: 400.0 mg/kg/injection, schedule: Q04DX003 (ip), vehicle: Klucel (hydroxypropylcellulose) (HPC)

O=C(Nc1ccc(C2=NCCN2)cc1)c1cc(Cl)cc(C(=O)Nc2ccc(C3=NCCN3)cc2)c1
T/C (dose: 62.5 mg/kg/injection, schedule: Q01DX009 (ip), vehicle: saline): 96 % of control and 104 % of control
T/C (dose: 120.0 mg/kg/injection, schedule: Q01DX Z (oral), vehicle: carboxymethylcellulose (CMC)): 102 % of control
T/C (dose: 125.0 mg/kg/injection, schedule: Q01DX009 (ip), vehicle: saline): 99 % of control and 106 % of control
T/C (dose: 140.0 mg/kg/injection, schedule: Q01DX010 (ip), vehicle: saline): 105 % of control
T/C (dose: 140.0 mg/kg/injection, schedule: Q01DX Z (ip), vehicle: methylcellulose (MC)): 107 % of control and 110 % of control
T/C (dose: 210.0 mg/kg/injection, schedule: Q01DX010 (ip), vehicle: saline): 109 % of control
T/C (dose: 210.0 mg/kg/injection, schedule: Q01DX Z (ip), vehicle: methylcellulose (MC)): 115 % of control
T/C (dose: 240.0 mg/kg/injection, schedule: Q01DX Z (oral), vehicle: carboxymethylcellulose (CMC)): 104 % of control
T/C (dose: 250.0 mg/kg/injection, schedule: Q01DX009 (ip), vehicle: saline): 96 % of control and 104 % of control
T/C (dose: 315.0 mg/kg/injection, schedule: Q01DX010 (ip), vehicle: saline): 98 % of control and 105 % of control
T/C (dose: 315.0 mg/kg/injection, schedule: Q01DX Z (ip), vehicle: methylcellulose (MC)): 179 % of control
T/C (dose: 473.0 mg/kg/injection, schedule: Q01DX010 (ip), vehicle: saline): 107 % of control and 110 % of control
T/C (dose: 473.0 mg/kg/injection, schedule: Q01DX Z (ip), vehicle: methylcellulose (MC)): 151 % of control
T/C (dose: 480.0 mg/kg/injection, schedule: Q01DX Z (oral), vehicle: carboxymethylcellulose (CMC)): 107 % of control
T/C (dose: 500.0 mg/kg/injection, schedule: Q01DX009 (ip), vehicle: saline): 103 % of control and 112 % of control
T/C (dose: 960.0 mg/kg/injection, schedule: Q01DX Z (oral), vehicle: carboxymethylcellulose (CMC)): 100 % of control

Cc1ccc(NC(=O)c2ccc(C(=O)Nc3ccc(C)cc3)cc2)cc1
T/C (dose: 56.0 mg/kg/injection, schedule: Q01DX Z (ip), vehicle: carboxymethylcellulose (CMC)): 88 % of control
T/C (dose: 225.0 mg/kg/injection, schedule: Q01DX Z (ip), vehicle: carboxymethylcellulose (CMC)): 92 % of control

N#CCCN(CCC#N)C(=O)Cl
T/C (dose: 100.0 mg/kg/injection, schedule: Q01DX001 (sc), vehicle: olive oil, sesame oil, peanut oil): 97 % of control
T/C (dose: 200.0 mg/kg/injection, schedule: Q01DX001 (sc), vehicle: olive oil, sesame oil, peanut oil): 97 % of control
T/C (dose: 400.0 mg/kg/injection, schedule: Q01DX001 (sc), vehicle: olive oil, sesame oil, peanut oil): 98 % of control

O=C(C=C(C(F)(F)F)C(F)(F)F)c1ccc([N+](=O)[O-])cc1
T/C (dose: 3.13 mg/kg/injection, schedule: Q01DX009 (ip), vehicle: other): 105 % of control
T/C (dose: 3.13 mg/kg/injection, schedule: Q04DX003 (ip), vehicle: other): 100 % of control
T/C (dose: 6.25 mg/kg/injection, schedule: Q01DX009 (ip), vehicle: other): 110 % of control
T/C (dose: 6.25 mg/kg/injection, schedule: Q04DX003 (ip), vehicle: other): 95 % of control
T/C (dose: 12.5 mg/kg/injection, schedule: Q04DX003 (ip), vehicle: other): 100 % of control and 103 % of control
T/C (dose: 25.0 mg/kg/injection, schedule: Q04DX003 (ip), vehicle: other): 96 % of control

O=C(N/N=C/c1cccnc1)C(O)C(O)C(O)C(O)CO (stereo not given)
T/C (dose: 100.0 mg/kg/injection, schedule: Q01DX001 (ip), vehicle: saline): 100 % of control
T/C (dose: 200.0 mg/kg/injection, schedule: Q01DX001 (ip), vehicle: saline): 103 % of control
T/C (dose: 400.0 mg/kg/injection, schedule: Q01DX001 (ip), vehicle: saline): 93 % of control

CCN(CCOC(=O)Nc1cccc(C(C)=O)c1)c1ccccc1
T/C (dose: 100.0 mg/kg/injection, schedule: Q01DX009 (ip), vehicle: Klucel (hydroxypropylcellulose) (HPC)): 108 % of control
T/C (dose: 200.0 mg/kg/injection, schedule: Q01DX009 (ip), vehicle: Klucel (hydroxypropylcellulose) (HPC)): 104 % of control
T/C (dose: 400.0 mg/kg/injection, schedule: Q01DX009 (ip), vehicle: Klucel (hydroxypropylcellulose) (HPC)): 106 % of control

CCN(CC)C(=O)Nc1cc2c3c(c1)CCCN3CCC2
T/C (dose: 50.0 mg/kg/injection, schedule: Q04DX002 (ip), vehicle: saline with Tween-80): 96 % of control
T/C [1]: 93 % of control
T/C [2]: 90 % of control
T/C [3]: 114 % of control

Cc1ccc(N2P(N(C)C)N(c3ccc(C)cc3)P2(=O)N(C)C)cc1 (stereo not given)
T/C (dose: 100.0 mg/kg/injection, schedule: Q04DX002 (ip), vehicle: Klucel (hydroxypropylcellulose) (HPC)): 111 % of control
T/C (dose: 200.0 mg/kg/injection, schedule: Q04DX002 (ip), vehicle: Klucel (hydroxypropylcellulose) (HPC)): 101 % of control
T/C (dose: 400.0 mg/kg/injection, schedule: Q04DX002 (ip), vehicle: Klucel (hydroxypropylcellulose) (HPC)): 101 % of control

CC(=O)OC1CCC2(C)C(CCC3C4CCC(C(C)OC(C)=O)C4NC(=O)CC32)C1 (stereo not given)
T/C (dose: 75.0 mg/kg/injection, schedule: Q01DX001 (ip), vehicle: other): 104 % of control
T/C (dose: 150.0 mg/kg/injection, schedule: Q01DX001 (ip), vehicle: other): 101 % of control
T/C (dose: 300.0 mg/kg/injection, schedule: Q01DX001 (ip), vehicle: other): 93 % of control

CN(C)Cc1ccnc(Cl)n1
T/C (dose: 2.0 mg/kg/injection, schedule: Q01DX Z (ip), vehicle: methylcellulose (MC)): 93 % of control

Cc1cn(-c2ccccc2)c(=O)[nH]c1=O
T/C (dose: 100.0 mg/kg/injection, schedule: Q01DX001 (ip), vehicle: other): 112 % of control

NC(=O)OCC(CO)(c1ccccc1)c1ccccc1
T/C (dose: 5.0 mg/kg/injection, schedule: Q01DX001 (ip), vehicle: saline): 98 % of control
T/C (dose: 10.0 mg/kg/injection, schedule: Q01DX001 (ip), vehicle: saline): 93 % of control
T/C (dose: 20.0 mg/kg/injection, schedule: Q01DX001 (ip), vehicle: saline): 102 % of control
T/C (dose: 40.0 mg/kg/injection, schedule: Q01DX001 (ip), vehicle: saline): 102 % of control
T/C (dose: 80.0 mg/kg/injection, schedule: Q01DX001 (ip), vehicle: saline): 98 % of control

O=C(N/N=C/c1ccccc1)c1ccc(Cl)cc1
T/C [4]: 97 % of control
T/C [5]: 100 % of control
T/C [6]: 90 % of control

CC(=O)c1cc(C)c(O)cc1C
T/C [1]: 103 % of control
T/C [2]: 92 % of control
T/C [3]: 111 % of control

Nc1ncnc(N)c1NC(=O)c1cccc([N+](=O)[O-])c1
T/C [4]: 98 % of control
T/C [5]: 103 % of control
T/C [6]: 93 % of control

CCCCCCCCCCC(CCCCCC)C(=O)O (stereo not given)
T/C (dose: 100.0 mg/kg/injection, schedule: Q01DX001 (ip), vehicle: saline with Tween-80): 95 % of control
T/C (dose: 200.0 mg/kg/injection, schedule: Q01DX001 (ip), vehicle: saline with Tween-80): 96 % of control
T/C (dose: 400.0 mg/kg/injection, schedule: Q01DX001 (ip), vehicle: saline with Tween-80): 90 % of control

Cc1cnc2c(N)nn(C)c2n1
T/C (dose: 50.0 mg/kg/injection, schedule: Q01DX009 (ip), vehicle: saline): 102 % of control
T/C (dose: 100.0 mg/kg/injection, schedule: Q01DX009 (ip), vehicle: saline): 110 % of control
T/C (dose: 100.0 mg/kg/injection, schedule: Q04DX003 (ip), vehicle: alcohol): 102 % of control
T/C (dose: 200.0 mg/kg/injection, schedule: Q04DX003 (ip), vehicle: alcohol): 98 % of control

Cc1cc(N(CCCOS(C)(=O)=O)CCCOS(C)(=O)=O)ccc1C=Nc1cccc(Br)c1
T/C (dose: 100.0 mg/kg/injection, schedule: Q01DX009 (ip), vehicle: saline with Tween-80): 96 % of control
T/C (dose: 200.0 mg/kg/injection, schedule: Q01DX009 (ip), vehicle: saline with Tween-80): 94 % of control
T/C (dose: 400.0 mg/kg/injection, schedule: Q01DX009 (ip), vehicle: saline with Tween-80): 91 % of control

CCNCC
T/C (dose: 100.0 mg/kg/injection, schedule: Q04DX003 (ip), vehicle: saline): 93 % of control
T/C (dose: 200.0 mg/kg/injection, schedule: Q04DX003 (ip), vehicle: saline): 101 % of control
T/C (dose: 400.0 mg/kg/injection, schedule: Q04DX003 (ip), vehicle: saline): 101 % of control

CC1(C)C2CCC1(C)C(NCc1cc(Br)cc(Br)c1O)C2 (stereo not given)
T/C [4]: 92 % of control
T/C [5]: 97 % of control
T/C [6]: 98 % of control

CC(C)CCNc1ncnc2nc[nH]c12
T/C (dose: 75.0 mg/kg/injection, schedule: Q01DX001 (ip), vehicle: saline): 90 % of control
T/C (dose: 150.0 mg/kg/injection, schedule: Q01DX001 (ip), vehicle: saline): 92 % of control

CCCN(CCC)C(=O)/C(=C\c1ccccc1)NC(=O)c1ccccc1
T/C (dose: 100.0 mg/kg/injection, schedule: Q01DX001 (ip), vehicle: carboxymethylcellulose (CMC)): 93 % of control
T/C (dose: 200.0 mg/kg/injection, schedule: Q01DX001 (ip), vehicle: carboxymethylcellulose (CMC)): 93 % of control
T/C (dose: 400.0 mg/kg/injection, schedule: Q01DX001 (ip), vehicle: carboxymethylcellulose (CMC)): 98 % of control
